These results are taken from patent US10975123B2, “Mutant Akt-specific capture agents, compositions, and methods of using and making” (California Institute of Technology, priority 2014, dated 2021).

Where a chain is given by its changes, count along the chain named. “Also recorded” adds a separate entry of the source. Where a SMILES comes first, the peptide text is derived from it. [ ]: non-standard residue; d: D form.

Assay [1] has as its target T1, E17K 33-mer epitope (PH Domain fragment of Akt1) (Homo sapiens, UniProt P31749, E17K/H13K).
T1 construct: made in house; host or cells: chemical synthesis (Fmoc SPPS)
T1 sequence (P31749 1-33 H13K/E17K limits assumed): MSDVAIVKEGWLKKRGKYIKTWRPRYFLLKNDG
In words: Fluorescence polarization binding to E17K mutant epitope. The note with it: yleaf peptide 4, fluorescence polarization in solution, triplicate. On the procedure:
FIG. 2: Anchor ligand structure and characterization. (FIG. 2A) The peptide anchor ligand, yleaf (SEQ ID NO: 43), which was discovered using the epitope-targeting technique. The different sets of R groups indicate the modifications that were made to perform the various experiments described. (FIG. 2B) Point ELISA for specificity obtained by immobilizing biotinylated yleaf (SEQ ID NO: 43) anchor ligand 2 onto a Neutravidin plate, then incubating with a 6 His-tagged epitope (“6 His” disclosed as SEQ ID NO: 4) 3. […] (FIG. 2C) Binding curves of yleaf (SEQ ID NO: 43) anchor ligand 4 to the full-length WT or E17K mutant Akt1 proteins obtained in solution by fluorescence polarization. A saturation point for the WT ligand was not reached due to the prohibitively high protein concentration required. (FIG. 2D) Full binding curves of yleaf (SEQ ID NO: 43) anchor ligand 4 to the WT or E17K mutant epitopes. […] All assays were performed in triplicate and averaged. Error bars indicate standard deviation.
The selectivity of the yleaf (SEQ ID NO: 43) peptide for the E17K 33-mer epitope was also tested in an ELISA assay format. For these assays, the WT or E17K 33-mer peptide fragments were captured using the PEG-biotin-modified yleaf (SEQ ID NO: 43) ligand immobilized on a neutravidin-coated plate.

In assay [2] the target is T2, E17K mutant PH Domain (PHD) of Akt1 (Homo sapiens, UniProt P31749, E17K).
T2 construct: The first 124 N-terminal amino acids from full length Akt1 were used as the PH Domain DNA; made in house; host or cells: E. coli
T2 sequence (P31749 1-124 E17K): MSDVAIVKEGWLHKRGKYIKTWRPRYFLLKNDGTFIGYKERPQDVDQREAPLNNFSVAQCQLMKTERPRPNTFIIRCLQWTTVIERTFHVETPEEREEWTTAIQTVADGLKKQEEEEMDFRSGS
The experiment in a line: Streptavidin-agarose immunoprecipitation (pulldown), E17K. Format: binding. The note with it: streptavidin agarose, 1xTBS, western blot band size, in words. The procedure: (§1) Four biligand candidates were chosen based on their hydrophobicity and sequence homology using principal component analysis (FIG. 25). Biligands were synthesized by coupling the 2° ligand onto Rink Amide Resin on the Titan peptide synthesizer. The amide group on the end of the Lys(N3) was capped by shaking the resin with 2 mL acetic anhydride, 2 mL NMP and 0.5 mL DIEA for 3×10 minutes, then washed with NMP. FMOC-Propargylglycine-Otbu (Pra) was clicked onto the Lys(N3) on the 2° ligand by incubating 2 eq of the Pra amino acid with 2 eq CuI and 2 eq ascorbic acid with 1 eq azide on resin in 20% piperidine/NMP for 3 hours. The resin was washed 5×4 mL with a chelating solution of 1 g sodium diethyldithiocarbamate in 20 mL NMP and 1 mL DIEA. The anchor was then built onto the 2° ligand on bead, and an N-terminal PEG5-biotin tag were added. Assays were performed exactly as for the anchor ligands, except for two key differences. The biligand assays were done with 6 ug of GST-tagged PHD protein, instead of the untagged PHD that was used in the anchor pulldowns. The pull-downs were also conducted out of 1% serum in 1×TBS, as opposed to just 1×TBS.
(§2) Pulldown assays were done on Streptavidin Agarose resin from Invitrogen. The resin was incubated with N-terminal biotinylated anchor peptide candidates identified via the ClusterLigand sequence analysis. The anchor candidate coated beads were then incubated with either the wildtype or mutant protein to compare the selectivity of the ligands, as well as the binding ability. The bound protein was eluted and western blotted to compare the amount of protein present for each sample.
(§3) Relative protein band sizes were analyzed to compare binding between the anchor candidates and were used to determine selectivity for either wildtype or mutant PH Domain (FIG. 11). […] Both of these ligands look fairly selective for their respective PH Domain.
(In general: A western blot detects proteins with antibodies after separation by electrophoresis.)

Assay [3] addresses T3, wildtype PH Domain (PHD) of Akt1 (Homo sapiens, UniProt P31749).
T3 construct: The first 124 N-terminal amino acids from full length Akt1 were used as the PH Domain DNA; made in house; host or cells: E. coli
In words: Streptavidin-agarose immunoprecipitation (pulldown), WT. The note with it: streptavidin agarose, 1xTBS, western blot band size, in words. It is filed as binding. The procedure: as §1, §2, §3

In assay [4] the target is T4, E17K 33-mer fragment (6His-tagged) (Homo sapiens, UniProt P31749, E17K/H13K).
T4 construct: made in house; host or cells: chemical synthesis (Fmoc SPPS)
T4 sequence (P31749 1-33 H13K/E17K limits assumed): T1 sequence (P31749 1-33 H13K/E17K limits assumed)
The experiment in a line: HPLC-detected immunoprecipitation (pulldown), E17K 33-mer. Format: binding. The note with it: 50 μM epitope, overnight 4° C., guanidine elution, in words. The source says:
(§4) The label-modified yleaf (SEQ ID NO: 43) peptide (FIG. 2a and FIG. 12) was subjected to a variety of binding assays against the synthesized WT and E17K 33-mer PHD fragments prepared without the biotin label and alkyne click handle. First, the yleaf (SEQ ID NO: 43) peptide was used in immunoprecipitation assays to pull-down either the WT or E17K mutant 6His-tagged (SEQ ID NO: 4) 33-mer peptide fragments (FIGS. 13 and 14), as opposed to the full-length proteins that were used to initially validate the candidates. Typical immunoprecipitation assays involve western blotting to estimate the amount of protein binding, but 33-mer peptide fragments are not easily quantified on a blot. Because of this, the amount of peptide epitope precipitated in these assays was quantified via injection on an analytical HPLC. These assays further confirmed preferential yleaf (SEQ ID NO: 43) ligand binding to the E17K 33-mer epitope relative to the WT epitope (FIG. 15).
(§5) Pulldown assays with the biotinylated anchor and his-tagged 33-mer epitope were performed to verify epitope targeting. […] Because small peptide fragments like the 33-mer epitope are difficult to transfer to and detect on the nitrocellulose membrane as for a traditional Western blot, the amount of binding in these assays was detected via HPLC. […]

Assay [5] deals with T5, WT 33-mer fragment (6His-tagged) (Homo sapiens, UniProt P31749, H13K).
T5 construct: made in house; host or cells: chemical synthesis (Fmoc SPPS)
T5 sequence (P31749 1-33 H13K limits assumed): T1 sequence (P31749 1-33 H13K/E17K limits assumed) with K17E
The experiment in a line: HPLC-detected immunoprecipitation (pulldown), WT 33-mer. Format: binding. The note with it: 50 μM epitope, overnight 4° C., guanidine elution, in words.
Description: as §4, §5

T3 sequence (P31749 1-124): as the sequence (P31749 1-124 E17K) above, with K17E counted along it

Take `CC(C)C[C@@H](NC(=O)[C@H](N)Cc1ccc(O)cc1)C(=O)N[C@H](CCC(=O)O)C(=O)N[C@H](C)C(=O)N[C@H](Cc1ccccc1)C(N)=O` [yleaf] (H-[dY][dL][dE][dA][dF]-NH2; N-terminus assumed): the Kd (usually the equilibrium constant for the complex coming apart) in assay [1] is 328 ± 96 nM. Moreover, the “pulldown of E17K mutant PH Domain by biotinylated anchor candidates” value in assay [2] was “a distinctively stronger binding to the E17K protein relative to the WT; also recorded: the greatest binding to the mutant”. Moreover, the “pulldown of wildtype PH Domain by biotinylated anchor candidates” value in assay [3] is recorded as “the least binding to the wildtype”. The “amount of E17K 33-mer fragment pulled down (HPLC peak)” value in assay [4] is given as “preferential; also recorded: pulls down the most of the E17K 33mer fragment”. Besides, in assay [5], the “amount of WT 33-mer fragment pulled down (HPLC peak)” value was “the least of the WT fragment”.
